Experimental data published in patent publication US20250120999A1 (priority 2022, published 2025).
Values joined by “and” are separate entries in the source; they are usually repeats but may differ in a detail not shown here. Identical values can stand only once. Marks after values point to notes of the source that are not given here.

Assays:
[1] = system: MPXV A29 protein; format: binding, monkeypox virus (MPXV)
[2] = system: MPXV A35 protein; format: binding, monkeypox virus (MPXV)
[3] = biological target: MPXV A29; format: binding, monkeypox virus (MPXV)
[4] = system: MPXV L1R; format: binding, monkeypox virus (MPXV)
[5] = system: MPXV A35 protein; format: binding, monkeypox virus (MPXV); remark: listed apart in the source
[6] = system: MPXV A29; format: binding, monkeypox virus (MPXV); remark: listed apart in the source
[7] = system: SARS-CoV-2 wild-type; settings: cited from earlier work
[8] = system: SARS-CoV-2 Delta (B.1.617.2); settings: cited from earlier work

Substance	Normalized A29 protein binding (%) [1]	ability to inhibit A29-surface-immobilized heparin interaction (in words) [1]	inhibition of MPXV A29 binding to surface-immobilized heparin [1]	Normalized A35 protein binding (%) [2]	ability to inhibit A35-surface-immobilized heparin interaction (in words) [2]	inhibition of MPXV A35 binding to surface-immobilized heparin [2]	inhibition of MPXV A29 binding to heparin surface (in words) [6]	further results
[→3)-α-GalNAcX(1→4)-β-GlcA-[(3→1)Y]-(1→]n, where X=4S (80%), 6S (10%), or non-sulfated (10%), and Y=−Fuc2,4S (40%), αFuc2,4S-(1→4)-α-Fuc (30%), or α-Fuc4S (30%) [PpFucCS]	13.0* %	showed the ability to inhibit	87%	19.0* %	showed the ability to inhibit	89%		
[→3)-β-GalNAc4,6S-(1→4)-β-GlcA-[(3→1)Y]-(1→]n, where Y=αFuc2,4S (45%), α-Fuc3,4S (35%), or α-Fuc4S (20%) [HfFucCS]	13.9* %	showed the ability to inhibit		23.0* %	showed the ability to inhibit			
heparin	43.3* %		60%	27.7* %		72%		kd [3]: 7.1 × 10^−3 (±5.0 × 10^−5) s^−1; Kd ([3]; read-out: KD heparin-A29 interaction): 0.25 µM; binding between MPXV L1R protein and heparin (in words) [4]: essentially no binding; ka [5]: 1.8 × 10^3 M^−1S^−1; Kd ([5]; read-out: KD heparin-A35 interaction): 0.22 µM; inhibition of MPXV A29 binding to surface-immobilized heparin [6]: 30%
chondroitin-4,6-sulfate [CSE]								ka [3]: 4858 M⁻¹ s⁻¹; kd [3]: 1.5 × 10^−3 (±4.7 × 10^−5) s^−1
[→3)-β-GalNAc4,6S-(1→4)β-GlcA-[(3→1)Y]-(1→]n, where Y=α-Fuc2,4S (96%) or α-Fuc4S (4%) [IbFucCS]	7.6* %	showed the ability to inhibit	91.5% and 86.1%	20.1* %	showed the ability to inhibit	79.9% and 77%		inhibitory activity against SARS-CoV-2 wild-type (in words) [7]: showed inhibitory activity; inhibitory activity against SARS-CoV-2 Delta (in words) [8]: showed inhibitory activity
pentosan polysulfate [PPS]							strongest inhibition	inhibition of MPXV A29 binding to surface-immobilized heparin [6]: 62%
N-desulfated heparin							weaker inhibition	
dermatan sulfate [DS]								ka [3]: 4487 M⁻¹ s⁻¹; kd [3]: 2.8 × 10^−3 (±2.6 × 10^−5) s^−1; binding of GAG chip to MPXV A35 protein (in words) [5]: neither CS nor DS showed binding
[→3)-α-Fuc2,4S-(1→3)-α-Fuc-(1→3)-α-Fuc2S-(1→3)-α-Fuc2S-(1→]n [HfSF]	8.5** %	showed the ability to inhibit		23.9* %	showed the ability to inhibit			
chondroitin sulfate [CS]								binding of GAG chip to MPXV A35 protein (in words) [5]: neither CS nor DS showed binding
2-O-desulfated IdoA heparin [2-desulfated heparin]							weaker inhibition	
[→3)-α-Fuc2,4S-(1→3)-α-Fuc2S-(1→3)-α-Fuc2S-(1→3)-α-Fuc-(1→]n [IbSF]	5.0** %	showed the ability to inhibit	95% and 92.4%	24.3* %	showed the ability to inhibit	75.8% and 77.4%		inhibitory activity against SARS-CoV-2 wild-type (in words) [7]: showed inhibitory activity; inhibitory activity against SARS-CoV-2 Delta (in words) [8]: showed inhibitory activity
[→3)-α-Fuc2,4S-(1→3)-αFuc2S-(1→3)-α-Fuc2S-(1→3)-α-Fuc4S-(1→]n [LvSF]	23.6* %	showed the ability to inhibit	76.4%	16.9* %	showed the ability to inhibit	83.1%		
chondroitin-4-sulfate [CSA]								ka [3]: 3730 M⁻¹ s⁻¹; kd [3]: 3.2 × 10^−3 (±5.4 × 10^−5) s^−1
mucopolysaccharide polysulfate [MPS]							strongest inhibition	inhibition of MPXV A29 binding to surface-immobilized heparin [6]: 69%
6-O-desulfated heparin [6-desulfated heparin]							weaker inhibition	
